The text below walks through data of ChEMBL document CHEMBL1201862, “PubChem BioAssay data set” (2004).

The structures appear in SMILES notation.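 Cells were grown in 96-well plates and exposed to each compound for 48 hours at five concentrations; endpoints were interpolated linearly between bracketing concentrations, or set to the highest concentration if not reached. At the GI50, growth is halved.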 Activity calls are given as the source filed them. Cut-off read from the data, not from the text of the source: active = GI50 up to about 1.1 µM and inactive = higher.

Common to all, as to experiment: DTP human tumour cell line panel, 48 h
The test system of assay [1] is DMS-273.
Assay [2] concerns SNB-78.
Assay [3] concerns DLD-1.
The test system of assay [4] is LXFL 529.
The test system of assay [5] is HOP-18.
Assay [6] deals with DMS-114.
In assay [7] the test system is KM-20L2.
Assay [8] relates to XF498.
For assay [9], the system named is RXF 631.

A word on the GI50: it is the concentration that inhibits growth by half. As to `N[C@H]1C2C3CC4C5CC(C42)C1(c1ccccc1)C53` (some centres not stated), the GI50 in [1], in assay [2], in assay [3], in [4], in assay [5] and in assay [6] was > 100 µM (inactive) each time. The GI50 in assay [7] and in [8] was > 100 µM (inactive) each time.
As for `C[C@]12CCC(=O)C(O)=C1CC[C@@H]1C2CC[C@]2(C)NC(=O)CCC12` (some centres not stated), the GI50 in [1], in assay [2], in [9], in assay [4], in [5] and in assay [6] was > 100 µM (inactive) in each case. The GI50 in assay [7] and in assay [8] was > 100 µM (inactive) each time.
`CCOC(=O)C(C)(c1cn(C)c2ccccc12)c1cn(C)c2ccccc12`: the GI50 is > 100 µM (inactive) in assay [1]; 70 µM (inactive) in [2]; 50.8 µM (inactive) in assay [9]; > 100 µM (inactive) in [3]; > 100 µM (inactive) in assay [4]; 79.6 µM (inactive) in assay [6]. The values for the GI50 in assay [7] and in [8] were > 100 µM (inactive) and 32.3 µM (inactive), respectively.
Take `CCc1cccc(C)c1NC(=O)C(=O)Cc1nc2ccccc2s1`: the GI50 in [1], in assay [2], in assay [9], in assay [3], in [4] and in assay [5] was > 100 µM (inactive) each time. In addition, the GI50 in assay [6] and in assay [7] was > 100 µM (inactive) throughout.
On to `CCOC(=O)N1CCc2cc(OC)c(OC)c3c2c1cc1cc(OC)c(OC)cc13`, for which the GI50 in [1] is 0.667 µM (active); in [2], 16.1 µM (inactive); in assay [9], 2.42 µM (inactive); in assay [3], 1.3 µM (inactive); in assay [4], 3.78 µM (inactive); in [5] it was 28.1 µM (inactive). The GI50 is 1.55 µM (inactive) in assay [6], 1.36 µM (inactive) in assay [7] and 0.67 µM (active) in assay [8].
Regarding `c1cncc(C2N3CCCCC3[C@@H]3c4[nH]c5ccccc5c4CCN23)c1` (some centres not stated), the GI50 in assay [1] was > 100 µM (inactive); in assay [2], 87.1 µM (inactive); in assay [9], > 100 µM (inactive); in assay [3], > 100 µM (inactive); in [4], > 100 µM (inactive); in [5] it was > 100 µM (inactive). Also, the GI50 in assay [7] and in [8] was > 100 µM (inactive) in each case.
As for `CCNC(=O)O/N=C1\CCC2[C@@H]3CC=C4C[C@@H](OC(=O)NCC)CC[C@]4(C)C3CC[C@]12C` (some centres not stated), the GI50 is 1.22 µM (inactive) in assay [1]; 4.26 µM (inactive) in assay [9]; 6.71 µM (inactive) in assay [3]; 1.01 µM (active) in assay [4]; 1.7 µM (inactive) in assay [5]; 0.358 µM (active) in [6]. In addition, the GI50 in assay [7] was 2.44 µM (inactive); in assay [8] it was 0.0792 µM (active).
For `CCCOc1ccc(/C=C\c2cc(OC)c(OC)c(OC)c2)cc1`, the GI50 in [1] is 36.3 µM (inactive); in assay [2], > 100 µM (inactive); in assay [9], 37.1 µM (inactive); in assay [3], 87.7 µM (inactive); in [4] it was 52.8 µM (inactive); in [5] it was > 100 µM (inactive). Also, the values for the GI50 in [6], in assay [7] and in [8] were 34.4 µM (inactive), 33 µM (inactive) and 62.2 µM (inactive), respectively.
Regarding `O=C(CC1(O)C(=O)Nc2ccccc21)c1cccc(O)c1` (configuration not stated), the GI50 in assay [1], in assay [2], in [9], in [3], in assay [4] and in assay [6] was > 100 µM (inactive) throughout. The GI50 in [7] is > 100 µM (inactive); in [8] it was 42.5 µM (inactive).
As for `COC(=O)[C@@H]1C[C@H](c2ccc(OC)c(OC)c2)OC1=O.COC(=O)[C@H]1C[C@H](c2ccc(OC)c(OC)c2)OC1=O`, the GI50 in [1], in assay [2], in assay [9], in [3], in assay [4] and in [6] was > 100 µM (inactive) each time. The GI50 in assay [7] and in assay [8] was > 100 µM (inactive) throughout.
Turning to `COc1ccc(C(=O)N/N=C/c2c(C)n(C)n(-c3ccccc3)c2=O)cc1`, the GI50 in [1], in [2], in assay [3], in assay [4], in assay [5] and in assay [6] was > 100 µM (inactive) in each case. The GI50 in assay [7] and in assay [8] was > 100 µM (inactive) in each case.
`NC(=O)COc1c(Br)cc(Br)cc1Br`: the GI50 in assay [1], in assay [9], in assay [3], in assay [6], in assay [7] and in assay [8] was > 100 µM (inactive) each time.
On to `O=C1CN(C(=O)c2ccccc2)Cc2[nH]c3ccccc3c21`, for which the GI50 in assay [1], in [2], in assay [9], in assay [3], in assay [4] and in [5] was > 100 µM (inactive) throughout. The GI50 in assay [6], in [7] and in assay [8] was > 100 µM (inactive) each time.
`C=Nc1ccc([N+](=O)[O-])cc1`: the GI50 in assay [1] was > 100 µM (inactive); in assay [2], > 100 µM (inactive); in assay [3], > 100 µM (inactive); in assay [4], > 72.8 µM (inactive); in assay [5] it was > 26.1 µM (inactive); in assay [6] it was > 100 µM (inactive). In addition, the GI50 in [7] and in assay [8] was > 100 µM (inactive) throughout.
In the case of `COC1=CC(=O)C2[C@H]3Cc4ccccc4[C@H]3C2(C)C1=O` (some centres not stated), the GI50 in assay [1] was > 100 µM (inactive); in assay [2], 78 µM (inactive); in assay [9], > 100 µM (inactive); in assay [3] it was > 100 µM (inactive); in assay [4], > 100 µM (inactive); in [7], 77.3 µM (inactive). The GI50 in [8] is 51.5 µM (inactive).
Regarding `C/C(N)=[N+](/C)[O-]`, the GI50 in assay [2] was > 100 µM (inactive); in assay [9] it was > 100 µM (inactive); in [3], 46.6 µM (inactive); in assay [4], > 100 µM (inactive); in [5], > 100 µM (inactive); in [6] it was 18.4 µM (inactive). The GI50 in [7] and in assay [8] was > 100 µM (inactive) throughout.
Consider `COc1ccc2oc3c(OC)c(OC)c(OC)cc3c(=O)c2c1`, for which the GI50 in [1] is > 100 µM (inactive); in assay [2], 69.7 µM (inactive); in [9], > 100 µM (inactive); in [3], > 100 µM (inactive); in [4], > 100 µM (inactive); in assay [5] it was 0.232 µM (active). The GI50 in assay [6], in assay [7] and in assay [8] was > 100 µM (inactive) throughout.
With `CN(C)CCNc1ccc2nnn3c4ccc(Cl)cc4c(=O)c1c23`, the GI50 in [1] is 2.82 µM (inactive); in [2] it was 11.9 µM (inactive); in [9], 2.37 µM (inactive); in assay [3] it was 3.21 µM (inactive); in assay [4] it was 3.23 µM (inactive); in [7] it was 2.86 µM (inactive). For the same compound, the GI50 in assay [8] is 8.73 µM (inactive).
In the case of `COc1cc(C(=O)N[C@H]2CCc3cc(OC)c(OC)c(OC)c3-c3ccc(SC)c(=O)cc32)cc(OC)c1OC`, the GI50 in [1] was 0.00298 µM (active); in assay [2] it was 0.0025 µM (active); in [9], 0.0338 µM (active); in assay [3], 0.00731 µM (active); in [4], 0.00811 µM (active); in assay [6], 0.00775 µM (active). Besides, the results for the GI50 in assay [7] and in assay [8] were 0.00475 µM (active) and 0.024 µM (active), respectively.
